According to patent EP2951180B1, “2,6,7,8 SUBSTITUTED PURINES AS HDM2 INHIBITORS” (Merck Sharp & Dohme Corp., priority 2013, dated 2014):

Biological target: T1, HDM2 (Homo sapiens, UniProt Q00987)
T1 construct: Thioredoxin (N); made in house; host or cells: E. coli strain BL21(DE3)Rosetta
Experiment: HDM2 FRET assay (inhibition of binding of FITC labeled p53-pocket peptide to HDM2)
Conditions: for IC50: 0.5 nM HDM2 (residues 17 to 125), 3nM peptide, two hour incubation at room temperature, read-out: FRET IC50
Method in brief: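 Compounds were tested in 10-point serial dilution against 0.5 nM recombinant HDM2 binding 3 nM fluorescein-labeled p53-pocket peptide. Detection used 0.25 nM terbium cryptate anti-6xHis antibody in PBS buffer containing 0.01% BSA and 0.01% Tween-20.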

T1 sequence (Q00987 17-125): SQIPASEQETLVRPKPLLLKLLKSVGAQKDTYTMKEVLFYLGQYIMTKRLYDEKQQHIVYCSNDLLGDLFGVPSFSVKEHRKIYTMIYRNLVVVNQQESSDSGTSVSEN

| SMILES | IC50 [µM] | inhibition at 1 µM (read-out: % inh. at 1000 nM, at 1000 nM compound) [%] |
| --- | --- | --- |
| CC(C)c1ccnc(-c2nc3nc(-c4nnn[nH]4)nc(N[C@H](C)C4CCC4)c3n2C[C@H]2CC[C@H](C)CC2)c1 [Example 12.8, N-[(1R)-1-cyclobutylethyl]-7-[(trans-4-methylcyclohexyl)methyl]-8-[4-(propan-2-yl)pyridin-2-yl]-2-(1H-tetrazol-5-yl)-7H-purin-6-amine] | 0.00191 | – |
| CC(C)c1ccnc(-c2nc3nc(CNS(C)(=O)=O)nc(N[C@H](C)C4CCC4)c3n2C[C@H]2CC[C@H](C)CC2)c1 [Example 12.9, N-[(6-{[(1R)-1-cyclobutylethyl]amino}-7-[(trans-4-methylcyclohexyl)methyl]-8-[4-(propan-2-yl)pyridin-2-yl]-7H-purin-2-yl)methyl]methanesulfonamide] | 0.374 | – |
| CC(C)c1ccnc(-c2nc3nc(CNC(=O)C(F)(F)F)nc(N[C@H](C)C4CCC4)c3n2C[C@H]2CC[C@H](C)CC2)c1 [Example 12.10, N-[(6-{[(1R)-1-cyclobutylethyl]amino}-7-[(trans-4-methylcyclohexyl)methyl]-8-[4-(propan-2-yl)pyridin-2-yl]-7H-purin-2-yl)methyl]-2,2,2-trifluoroacetamide] | – | 30 |
| C[C@@H](Nc1nc(-c2nnn(C)n2)nc2nc(N3CCOC[C@H]3c3ccccc3)n(C[C@H]3CC[C@H](C)CC3)c12)C1CCC1 [Example 12.11, N-[(1R)-1-cyclobutylethyl]-7-[(trans-4-methylcyclohexyl)methyl]-2-(2-methyl-2H-tetrazol-5-yl)-8-[(3R)-3-phenylmorpholin-4-yl]-7H-purin-6-amine] | 0.0325 | – |
| C[C@@H](Nc1nc(-c2nnnn2C)nc2nc(N3CCOC[C@H]3c3ccccc3)n(C[C@H]3CC[C@H](C)CC3)c12)C1CCC1 [Example 12.12, N-[(1R)-1-cyclobutylethyl]-7-[(trans-4-methylcyclohexyl)methyl]-2-(1-methyl-1H-tetrazol-5-yl)-8-[(3R)-3-phenylmorpholin-4-yl]-7H-purin-6-amine] | 0.0273 | – |
| COC(=O)c1nc(N[C@H](C)C2CCC2)c2c(n1)nc(N1CCOC[C@H]1c1ccccc1)n2C[C@H]1CC[C@H](C)CC1 [Example 12.13, Methyl-6-{[(1R)-1-cyclobutylethyl]amino}-7-[(trans-4-methylcyclohexyl)methyl]-8-[(3R)-3-phenylmorpholin-4-yl]-7H-purine-2-carboxylate] | 0.0494 | – |
| C[C@@H](Nc1nc(C(C)(C)O)nc2nc(N3CCOC[C@H]3c3ccccc3)n(C[C@H]3CC[C@H](C)CC3)c12)C1CCC1 [Example 12.14, 2-(6-{[(1R)-1-cyclobutylethyl]amino}-7-[(trans-4-methylcyclohexyl)methyl]-8-[(3R)-3-phenylmorpholin-4-yl]-7H-purine-2-yl)propan-2-ol] | 0.107 | – |
| C[C@@H](Nc1nc(-c2n[nH]c(=O)n2C)nc2nc(N3CCOC[C@H]3c3ccccc3)n(C[C@H]3CC[C@H](C)CC3)c12)C1CCC1 [Example 12.15, 5-(6-{[(1R)-1-cyclobutylethyl]amino}-7-[(trans-4-methylcyclohexyl)methyl]-8-[(3R)-3-phenylmorpholin-4-yl]-7H-purin-2-yl)-4-methyl-2,4-dihydro-3H-1,2,4-triazol-3-one] | 0.0145 | – |
| C[C@@H](Nc1nc(-c2nnc[nH]2)nc2nc(N3CCOC[C@H]3c3ccccc3)n(C[C@H]3CC[C@H](C)CC3)c12)C1CCC1 [Example 12.16, N-[(1R)-1-cyclobutylethyl]-7-[(trans-4-methylcyclohexyl)methyl]-8-[(3R)-3-phenylmorpholin-4-yl]-2-(4H-1,2,4-triazol-3-yl)-7H-purin-6-amine] | 0.0108 | – |
| CCNC(=O)c1nc(N[C@H](C)C2CCC2)c2c(n1)nc(N1CCOC[C@H]1c1ccccc1)n2C[C@H]1CC[C@H](C)CC1 [Example 12.17, 6-{[(1R)-1-cyclobutylethyl]amino}-N-ethyl-7-[(trans-4-methylcyclohexyl)methyl]-8-[(3R)-3-phenylmorpholin-4-yl]-7H-purine-2-carboxamide] | 0.00163 | – |
| C[C@@H](Nc1nc(C(=O)NS(C)(=O)=O)nc2nc(N3CCOC[C@H]3c3ccccc3)n(C[C@H]3CC[C@H](C)CC3)c12)C1CCC1 [Example 12.18, 6-{[(1R)-1-cyclobutylethyl]amino}-7-[(trans-4-methylcyclohexyl)methyl]-N-(methylsulfonyl)-8-[(3R)-3-phenylmorpholin-4-yl]-7H-purine-2-carboxamide] | 0.000585 | – |
| C[C@@H](Nc1nc(-c2nc(=O)n(C)[nH]2)nc2nc(N3CCOC[C@H]3c3ccccc3)n(C[C@H]3CC[C@H](C)CC3)c12)C1CCC1 [Example 12.19, 5-(6-{[(1R)-1-cyclobutylethyl]amino}-7-[(trans-4-methylcyclohexyl)methyl]-8-[(3R)-3-phenylmorpholin-4-yl]-7H-purine-2-yl)-2-methyl-2,4-dihydro-3H-1,2,4-triazol-3-one] | 0.00161 | – |
| C[C@@H](Nc1nc(C(O)CO)nc2nc(N3CCOC[C@H]3c3ccccc3)n(C[C@H]3CC[C@H](C)CC3)c12)C1CCC1 (stereo partly drawn) [Example 12.20, 1-(6-(((R)-1-cyclobutylethyl)amino)-7-((trans-4-methylcyclohexyl)methyl)-8-((R)-3-phenylmorpholino)-7H-purin-2-yl)ethane-1,2-diol] | 0.0494 | – |
| CC(=O)c1nc(N[C@H](C)C2CCC2)c2c(n1)nc(N1CCOC[C@H]1c1ccccc1)n2C[C@H]1CC[C@H](C)CC1 [Example 12.21, 1-(6-{[(1R)-1-cyclobutylethyl]amino}-7-[(trans-4-methylcyclohexyl)methyl]-8-[(3R)-3-phenylmorpholin-4-yl]-7H-purin-2-yl)ethanone] | 0.0533 | – |
| C[C@@H](Nc1nc(CO)nc2nc(N3CCOC[C@H]3c3ccccc3)n(C[C@H]3CC[C@H](C)CC3)c12)C1CCC1 [Example 12.22, (6-{[(1R)-1-cyclobutylethyl]amino}-7-[(trans-4-methylcyclohexyl)methyl]-8-[(3R)-3-phenylmorpholin-4-yl]-7H-purin-2-yl)methanol] | 0.0786 | – |
| CC(=O)c1nc(N[C@H](C)C2CCC2)c2c(n1)nc(N1CCOC[C@H]1c1ccccc1)n2C[C@H]1CC[C@H](C)CC1 [Example 12.23, 1-(6-{[(1R)-1-cyclobutylethyl]amino}-7-[(trans-4-methylcyclohexyl)methyl]-8-[(3R)-3-phenylmorpholin-4-yl]-7H-purin-2-yl)ethanone] | 0.0533 | – |
| C[C@@H](Nc1nc(C(=O)NS(=O)(=O)N(C)C)nc2nc(N3CCOC[C@H]3c3ccccc3)n(C[C@H]3CC[C@H](C)CC3)c12)C1CCC1 [Example 12.24, 6-{[(1R)-1-cyclobutylethyl]amino}-N-(dimethylsulfamoyl)-7-[(trans-4-methylcyclohexyl)methyl]-8-[(3R)-3-phenylmorpholin-4-yl]-7H-purine-2-carboxamide] | 0.00141 | – |
| Cc1cccc(-c2nc3nc(C(=O)NS(C)(=O)=O)nc(N[C@H](C)C4CC4)c3n2Cc2ccc(C(F)(F)F)cc2)c1 [Example 12.25, 6-{[(1R)-1-cyclopropylethyl]amino}-8-(3-methylphenyl)-N-(methylsulfonyl)-7-[4-(trifluoromethyl)benzyl]-7H-purine-2-carboxamide] | 1.07 | – |
| Cc1cccc(-c2nc3nc(-c4nnn[nH]4)nc(N[C@H](C)C4CC4)c3n2Cc2ccc(C(F)(F)F)cc2)c1 [Example 12.26, N-[(1R)-1-cyclopropylethyl]-8-(3-methylphenyl)-2-(1H-tetrazol-5-yl)-7-[4-(trifluoromethyl)benzyl]-7H-purin-6-amine] | 0.053 | – |
| Cc1cccc(-c2nc3nc(C(N)=O)nc(N[C@H](C)C4CC4)c3n2Cc2ccc(C(F)(F)F)cc2)c1 [Example 12.27, 6-{[(1R)-1-cyclopropylethyl]amino}-8-(3-methylphenyl)-7-[4-(trifluoromethyl)benzyl]-7H-purine-2-carboxamide] | 2.04 | – |
| Cc1cccc(-c2nc3nc(-c4nc[nH]n4)nc(N[C@H](C)C4CC4)c3n2Cc2ccc(C(F)(F)F)cc2)c1 [Example 12.28, N-[(1R)-1-cyclopropylethyl]-8-(3-methylphenyl)-2-(1H-1,2,4-triazol-3-yl)-7-[4-(trifluoromethyl)benzyl]-7H-purin-6-amine] | 0.314 | – |
| Cc1cccc(-c2nc3nc(C(N)=O)nc(N[C@H](C)C4CCC4)c3n2Cc2ccc(C(F)(F)F)cc2)c1 [Example 12.29, 6-{[(1R)-1-cyclobutylethyl]amino} -8-(3-methylphenyl)-7-[4-(trifluoromethyl)benzyl]-7H-purine-2-carboxamide] | 1.41 | – |
| CNC(=O)c1nc(N[C@H](C)C2CCC2)c2c(n1)nc(-c1cccc(C)c1)n2Cc1ccc(C(F)(F)F)cc1 [Example 12.30, 6-{[(1R)-1-cyclobutylethyl]amino}-N-methyl-8-(3-methylphenyl)-7-[4-(trifluoromethyl)benzyl]-7H-purine-2-carboxamide] | 0.873 | – |
| CONC(=O)c1nc(N[C@H](C)C2CCC2)c2c(n1)nc(-c1cc(C(C)C)ccn1)n2Cc1ccc(C(F)(F)F)cc1 [Example 12.32, 6-{[(1R)-1-cyclobutylethyl]amino}-N-methoxy-8-[4-(1-methylethyl)pyridin-2-yl]-7-[4-(trifluoromethyl)benzyl]-7H-purine-2-carboxamide] | 0.0425 | – |
| C[C@@H](Nc1nc(CO)nc2nc(N3CCOC[C@H]3c3ccccc3)n(Cc3ccc(C(F)(F)F)cc3)c12)C1CCC1 [Example 12.33, (6-{[(1R)-1-cyclobutylethyl]amino}-8-[(3R)-3-phenylmorpholin-4-yl]-7-[4-(trifluoromethyl)benzyl]-7H-purin-2-yl)methanol] | 0.151 | – |
| CC(C)c1ccnc(-c2nc3nc(CO)nc(N[C@H](C)C4CCC4)c3n2C[C@H]2CC[C@H](C)CC2)c1 [Example 12.34, (6-{[(1R)-1-cyclobutylethyl]amino}-7-[(trans-4-methylcyclohexyl)methyl]-8-[4-(1-methylethyl)pyridin-2-yl]-7H-purin-2-yl)methanol] | 0.301 | – |
